Measurements from US7321002B2, “Chiral integrin modulators and methods of use thereof” (Billings Pharmaceuticals, Inc., priority 2000, dated 2008).

Columns and labels:
[1] = tested on: HIV-1RF-infected H9 cells; assay: HIV-induced syncytium formation: fusion of intact H9 cells with HIV-1RF-infected H9 cells; format: cell-based; details: H9 + HIV-1RF-infected H9 cells, 6 to 15 hours at 37° C., FIG. 1
Excerpt: For all the curves, the effect of ajoene enantiomers and enantiomer mixtures on the fusion of cultured, intact H9 cells with HIV-1RF-infected H9 cells is disclosed. The vertical graph axis expresses the maximum amount of syncytia formed in the absence of the compounds (100 percent), while the points on the curves represent percentages of such an amount of syncytia formed in the presence of varying concentrations of the compounds and compound mixtures (micromoles per liter).
Another such method is based on the inhibition of HIV-mediated syncytium formation, a phenomenon known to depend on the functional activity of integrins. The purified Z enantiomers, racemic E-ajoene, and the original 3:1 mixture of racemic Z- and E-ajoenes were taken up in DMSO at a concentration of 10 mg/mL. Dilutions were made in RPMI 1640 medium containing 10% fetal calf serum and 10 mM HEPES (cRPMW). HIV-1RF-infected H9 cells and uninfected H9 cells were washed with cRPMI and resuspended in cRPMI at a density of 4×10^6 per mL. Uninfected cells (50 μL) were mixed with serial dilutions of the compounds (100 μL) and incubated at 37° C. for30 minutes before adding and mixing 50 μL of infected H9 cells. The plates were incubated at 37° C. for 6 to 15 hours before scoring syncytium formation.
The purified enantiomers were taken up in DMSO at a concentration of 10 mg/mL. Dilutions were made in RPMI 1640 medium containing 10% fetal calf serum and 10 mM HEPES (cRPMI). H9 cells (ATCC, Rockville, Md.) infected with HIV-1RF, (NIH AIDS Repository, Rockville, Md.) and uninfected H9 cells were washed with cRPMI and resuspended in cRPMI at a density of 4×10^6 per mL. Uninfected cells (50 μL) were mixed with serial dilutions of the compounds (100 μL) and incubated at 37° C. for 30 min before adding and mixing 50 μL of infected H9 cells. The plates were incubated at 37° C. for 6 to 15 hours before scoring syncytium formation.

VLA-4 = target: T1, VLA-4 (Homo sapiens, UniProt P05556+P13612); assay: Inhibition of VLA-4-mediated adhesion of enzyme-labeled PM1 cells to VCAM-1-coated substrata; format: cell-based; details: PM1 cells on immobilized VCAM-1; listed as Z(−) enantiomer of ajoene
T1 construct: host or cells: PM1 cells (VLA-4); COS7 cells secrete the VCAM/IgG ligand
Procedure: In addition, the invention discloses methods whereby the integrin-modulating activity of ajoene enantiomers may be assessed. One such method involves VLA-4-mediated adhesion of enzyme-labeled PM1 cells to VCAM-1-coated artificial substrata. Specifically, the cells were exposed to isolated ajoene enantiomers (or the vehicle thereof) and allowed to adhere to immobilized VCAM-1. Thereafter, the adherent cells were lyzed and, following addition of the substrate of the enzyme and incubation, the activity of the enzyme was measured spectrophotometrically. The value of this parameter, characterizing the number of the adherent cells, is inversely proportional to the integrin-modulating activity of the compound.
Integrin-modulating activity of the enantiomers was compared in a well-defined system of inhibition of VLA-4-mediated adhesion of enzyme-labeled PM1 cells (NIH AIDS Repository, Rockville, Md.) to VCAM-1-coated artificial substrata. In this experiment, enzyme-linked immunosorbent assay (ELISA) plates were coated with rabbit anti-human IgG (Fc-specific). Aliquots of 100 μL of supernatant from VCAM/IgG-secreting COS7 cells were added to each well, the plates incubated at 37° C. for 1 hour, and the wells washed with phosphate-buffered saline (PBS). […] The reaction was stopped with 0.5 M H2SO4, andthe optical density of the wells, read at 450 nm. […]

T1 sequence (P13612 34-1032): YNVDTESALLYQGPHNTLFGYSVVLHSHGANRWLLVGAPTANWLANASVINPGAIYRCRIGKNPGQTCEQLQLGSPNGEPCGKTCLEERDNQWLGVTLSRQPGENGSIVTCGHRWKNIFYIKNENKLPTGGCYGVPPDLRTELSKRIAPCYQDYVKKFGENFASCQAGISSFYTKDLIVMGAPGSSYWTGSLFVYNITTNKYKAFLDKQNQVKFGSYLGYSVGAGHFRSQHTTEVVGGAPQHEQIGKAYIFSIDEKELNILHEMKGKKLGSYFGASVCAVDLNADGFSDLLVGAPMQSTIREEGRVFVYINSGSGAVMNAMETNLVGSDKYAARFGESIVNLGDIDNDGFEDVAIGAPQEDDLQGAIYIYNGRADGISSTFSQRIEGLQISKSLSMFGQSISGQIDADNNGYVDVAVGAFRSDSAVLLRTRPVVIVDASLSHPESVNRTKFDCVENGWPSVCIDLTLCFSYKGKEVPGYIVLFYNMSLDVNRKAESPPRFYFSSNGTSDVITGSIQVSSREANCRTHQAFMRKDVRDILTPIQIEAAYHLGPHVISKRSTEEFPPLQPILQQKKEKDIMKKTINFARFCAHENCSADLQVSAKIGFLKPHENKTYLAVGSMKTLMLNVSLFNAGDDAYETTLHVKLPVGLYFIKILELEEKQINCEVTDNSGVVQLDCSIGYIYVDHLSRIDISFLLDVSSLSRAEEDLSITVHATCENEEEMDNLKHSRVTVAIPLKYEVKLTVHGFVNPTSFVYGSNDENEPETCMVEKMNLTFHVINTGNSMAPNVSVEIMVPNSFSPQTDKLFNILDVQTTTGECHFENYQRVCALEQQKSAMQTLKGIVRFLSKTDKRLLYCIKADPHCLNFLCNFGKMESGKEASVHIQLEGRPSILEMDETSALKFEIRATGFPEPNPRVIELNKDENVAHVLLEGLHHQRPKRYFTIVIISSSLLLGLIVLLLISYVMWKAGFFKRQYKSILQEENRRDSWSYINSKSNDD
T1 sequence (P05556 21-798): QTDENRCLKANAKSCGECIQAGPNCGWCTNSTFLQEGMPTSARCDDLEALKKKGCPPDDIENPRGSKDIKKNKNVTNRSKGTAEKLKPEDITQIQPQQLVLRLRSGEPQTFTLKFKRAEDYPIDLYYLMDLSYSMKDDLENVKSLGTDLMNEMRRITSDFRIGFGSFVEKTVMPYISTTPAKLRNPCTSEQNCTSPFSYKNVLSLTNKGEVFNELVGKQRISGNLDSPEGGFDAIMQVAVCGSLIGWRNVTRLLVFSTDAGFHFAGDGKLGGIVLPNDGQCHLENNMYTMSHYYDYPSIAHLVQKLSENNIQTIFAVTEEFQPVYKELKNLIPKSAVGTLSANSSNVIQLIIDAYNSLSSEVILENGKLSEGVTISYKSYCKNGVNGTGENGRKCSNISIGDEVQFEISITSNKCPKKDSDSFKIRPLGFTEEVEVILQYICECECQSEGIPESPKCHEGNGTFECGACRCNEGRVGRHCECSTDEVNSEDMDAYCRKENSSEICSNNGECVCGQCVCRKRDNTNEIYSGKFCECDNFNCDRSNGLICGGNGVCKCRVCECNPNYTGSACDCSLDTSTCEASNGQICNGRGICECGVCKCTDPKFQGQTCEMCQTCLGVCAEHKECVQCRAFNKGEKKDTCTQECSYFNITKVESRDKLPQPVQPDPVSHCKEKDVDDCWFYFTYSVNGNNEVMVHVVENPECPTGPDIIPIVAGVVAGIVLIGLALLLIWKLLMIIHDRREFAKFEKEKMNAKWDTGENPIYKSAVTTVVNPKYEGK

adhesion-inhibiting activity relative to the other enantiomers / original 3:1 mixture (VLA-4)	SMILES	IC100 of syncytium formation [1]	IC100 of syncytium formation ([1]; listed as Z(+))	IC100 of syncytium formation ([1]; listed as Z(−) enantiomer)
	C=CCSS/C=C/C[S+]([O-])CC=C (racemic) [racemic E-ajoene, reference compound]	50 micromoles per liter		
	C=CCSSC=CC[S+]([O-])CC=C (racemic) [unseparated 3:1 mixture of racemic Z- and E-ajoenes, 4,5,9-trithiadodeca-1,6,11-triene-9-oxide, reference compound]	50 micromoles per liter		
	C=CCSS/C=C\C[S+]([O-])CC=C (stereo not drawn) [Z(+)-ajoene, Z(+)-4,5,9-trithiadodeca-1,6,11-triene-9-oxide]		50 micromoles per liter	
4 fold	C=CCSS/C=C\C[S+]([O-])CC=C (stereo not drawn) [Z(−)-ajoene, Z(−)-4,5,9-trithiadodeca-1,6,11-triene-9-oxide]	12.5 micromoles per liter		12.5 micromoles per liter
